How the values were obtained:
[1] = test system: cerebellar granule neurons from P7 rats; assay: Neurite outgrowth assay, cerebellar neurons; type: cell-based, rat; conditions: cerebellar granule neurons; data not shown
[2] = target: catalytic domain of Rho-kinase (GST-CAT) (Bos taurus, UniProt Q28021); assay: In vitro binding assay of p21 and Rho-kinase (GST-CAT); conditions: co-incubated at the indicated concentrations
[3] = target: T1, Rho-kinase (Bos taurus, UniProt Q28021); assay: Rho-kinase kinase assay with lysates of transfected 293T cells; type: cell-based; conditions: 293T cells transfected with myc-Rho-kinase; Y-27632 10 μM for 30 minutes
T1 sequence (Q28021 whole entry): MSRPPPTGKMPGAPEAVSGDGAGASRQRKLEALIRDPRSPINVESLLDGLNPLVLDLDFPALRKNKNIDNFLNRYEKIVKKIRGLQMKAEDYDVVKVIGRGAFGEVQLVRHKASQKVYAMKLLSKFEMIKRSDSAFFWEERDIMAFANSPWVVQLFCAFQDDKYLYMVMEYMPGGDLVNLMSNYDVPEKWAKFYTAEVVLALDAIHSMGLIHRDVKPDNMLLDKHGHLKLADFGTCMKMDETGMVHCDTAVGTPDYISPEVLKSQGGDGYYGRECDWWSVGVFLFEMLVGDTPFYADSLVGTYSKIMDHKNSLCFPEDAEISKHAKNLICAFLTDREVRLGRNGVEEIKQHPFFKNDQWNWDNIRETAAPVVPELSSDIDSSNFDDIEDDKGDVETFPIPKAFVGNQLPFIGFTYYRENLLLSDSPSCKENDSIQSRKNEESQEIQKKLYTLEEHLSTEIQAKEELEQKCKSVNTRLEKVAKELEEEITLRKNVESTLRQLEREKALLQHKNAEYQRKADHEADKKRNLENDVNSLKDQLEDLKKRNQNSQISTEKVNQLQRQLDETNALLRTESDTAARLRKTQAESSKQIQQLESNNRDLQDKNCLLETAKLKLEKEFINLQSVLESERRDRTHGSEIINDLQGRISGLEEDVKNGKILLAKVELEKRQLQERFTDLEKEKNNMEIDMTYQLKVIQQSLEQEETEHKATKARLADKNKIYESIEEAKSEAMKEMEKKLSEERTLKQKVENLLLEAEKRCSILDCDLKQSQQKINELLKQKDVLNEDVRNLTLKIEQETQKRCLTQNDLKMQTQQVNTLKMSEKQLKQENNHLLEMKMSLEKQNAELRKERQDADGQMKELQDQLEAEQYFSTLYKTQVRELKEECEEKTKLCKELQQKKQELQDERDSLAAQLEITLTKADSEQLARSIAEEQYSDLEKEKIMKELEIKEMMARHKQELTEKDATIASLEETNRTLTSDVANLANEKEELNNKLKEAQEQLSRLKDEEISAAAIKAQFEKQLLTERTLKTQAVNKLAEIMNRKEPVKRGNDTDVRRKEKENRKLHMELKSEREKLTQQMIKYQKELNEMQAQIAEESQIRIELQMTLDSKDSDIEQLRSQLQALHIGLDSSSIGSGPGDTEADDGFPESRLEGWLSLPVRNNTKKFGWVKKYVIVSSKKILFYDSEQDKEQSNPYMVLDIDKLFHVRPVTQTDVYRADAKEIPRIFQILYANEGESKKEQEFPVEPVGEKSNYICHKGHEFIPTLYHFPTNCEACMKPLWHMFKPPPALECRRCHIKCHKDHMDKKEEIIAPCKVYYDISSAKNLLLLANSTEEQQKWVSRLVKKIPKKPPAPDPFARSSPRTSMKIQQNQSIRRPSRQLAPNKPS
Protocol: Cells were lysed with lysis buffer (50 mM Tris-HCl (pH 7.5), 150 mM NaCl, 10% glycerol, 1% Nonidet-P40 and protease inhibitor cocktail). The kinase assay was carried out using the lysates.

[4] = test system: N1E-115 cells; assay: Morphological analysis of N1E-115 cells; type: cell-based; conditions: for neurite formation / population with long neurites: Y-27632 10 μM for 30 minutes, constructs 48 hours after transfection
Protocol: N1E-115 cells were transfected with GFP, GFP-full-p21 or GFP-ΔNLS-p21, and cultured in serum-starved condition for 5 hours. Then, the medium was replaced with DMEM containing 10% fetal bovine serum. The cells were fixed at 48 hours after transfection. The morphology of the cells was categorized into 3 groups; neurite positive cells, round cells and the other cells. The cells with longer neurites than their soma were defined as neurite positive cells. The other cells had various features including microspikes, ruffles and a flattened appearance.

[5] = target: T2, Recombinant human p75-Fc chimera (Homo sapiens, UniProt P08138); assay: Co-precipitation of recombinant p75 and gangliosides; type: binding; conditions: precipitation with protein A sepharose, Western blot
T2 construct: Recombinant p75 extracellular domain fused to Fc purified from Sf21 cells; purchased Genzyme-Techne; host or cells: Sf21 cells
T2 sequence (P08138 29-250 limits assumed): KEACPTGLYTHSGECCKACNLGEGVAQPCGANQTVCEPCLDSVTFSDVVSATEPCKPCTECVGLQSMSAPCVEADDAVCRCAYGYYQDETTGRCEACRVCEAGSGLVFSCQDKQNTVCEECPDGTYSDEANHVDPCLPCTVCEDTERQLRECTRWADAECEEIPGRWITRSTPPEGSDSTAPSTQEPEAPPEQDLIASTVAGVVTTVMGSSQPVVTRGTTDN
Protocol: Recombinant human p75-Fc chimera (1 μg; Genzyme-Techne) and 1 μg of purified ganglioside GT1b (>98% purity, Seikagaku Co.) were incubated in 200 μl 0.025% Tween20/PBS for 2 h, and p75 was precipitated using proteinA sepharose (Amersham Pharmacia Biotech). The resultant precipitates were electrophoretically transferred to polyvinylidene difluoride membranes after SDS-PAGE with 7% gels and were immunoblotted with anti GT1b antibody (IgM, Seikagaku Co.) or anti p75 antibody.

[6] = test system: RhoA; assay: Affinity-precipitation of GTP-RhoA in cerebellar neurons; type: cell-based, mice; conditions: post-natal cerebellar neurons, wild type; MAG-Fc 25 μg/ml, Nogo peptide 4 μM
Protocol: 293 cells were transfected with pcDNA3 vectors containing wild type RhoA whose NH2-terminus is tagged with HA (Yamashita, T. et al., Neuron. 24:585-593, 1999) and/or full-length human p75 by lipofection using Lipofectamine 2000 (Gibco BRL). Cerebellar neurons from P9 mice were isolated as described previously (Cai et. al, Neuron, 22:89-101, 1999). Cells were lysed in 50 mM Tris (pH 7.5), 1% Triton X-100, 0.5% sodium deoxycholate, 0.1% SDS, 500 mM NaCl, 10 mM MgCl2, with leupeptin and aprotinin, each at 10 μg/ml. Cell lysates were clarified by centrifugation at 13,000×g at 4° C. for 10 min, and the supernatants were incubated with the 20 μg of GST-Rho binding domain of Rhotekin beads (Upstate Biotech.) at 4° C. for 45 min. The beads were washed 4 times with washing buffer (50 mM Tris (pH 7.5) containing 1% Triton X-100, 150 mM NaCl, 10 mM MgCl2, 10 μg/ml each of leupeptin and aprotinin). Bound Rho proteins were detected by Western blotting using a monoclonal antibody against RhoA (Santa Cruz Biotechnology).
Amino-terminally FLAG-tagged human p75 or the deletion mutants of p75 ICD were cloned into pcDNA3.1 expression plasmid, and were transfected with 293T cells. […] Bound Rho proteins were detected by Western blotting using a monoclonal antibody against RhoA (Santa Cruz Biotechnology).

[7] = target: T3, interaction of p75 with Rho GDI (Homo sapiens, UniProt P08138); assay: Co-immunoprecipitation of p75 with Rho GDI or RhoA in transfected N1E-115 cells; type: cell-based; conditions: N1E-115 cells transfected with FLAG-tagged p75; Nogo peptide 4 μM, MAG-Fc 25 μg/ml, NGF 100 ng/ml
T3 construct: expressed in transfected cells; host or cells: N1E-115 cells
T3 sequence (P08138 29-427): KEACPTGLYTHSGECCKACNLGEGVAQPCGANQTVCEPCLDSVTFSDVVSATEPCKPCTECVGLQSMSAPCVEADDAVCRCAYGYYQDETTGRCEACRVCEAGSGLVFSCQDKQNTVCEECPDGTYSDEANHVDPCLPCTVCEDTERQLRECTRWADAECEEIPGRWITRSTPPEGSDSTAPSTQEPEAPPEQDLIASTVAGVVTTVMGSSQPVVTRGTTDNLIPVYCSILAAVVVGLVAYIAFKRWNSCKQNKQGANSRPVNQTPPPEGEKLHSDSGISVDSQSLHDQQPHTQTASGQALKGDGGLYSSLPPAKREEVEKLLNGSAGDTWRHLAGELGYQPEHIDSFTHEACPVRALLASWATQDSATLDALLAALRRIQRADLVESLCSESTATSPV

[8] = test system: cerebellar neurons; assay: Neurite outgrowth assay, post-natal cerebellar neurons; type: cell-based, mice; conditions: cerebellar neurons transfected with myc-tagged Rho GDI
[9] = target: T4, p75 (Homo sapiens, UniProt P08138); assay: Co-precipitation of p75 and Rho GDI with purified recombinant proteins; type: binding; conditions: p75 precipitated from transfected 293T cells; purified recombinant proteins
T4 construct: host or cells: 293T cells (p75)
T4 sequence (P08138 29-427): T3 sequence (P08138 29-427)

[10] = test system: NIH3T3 cells; assay: Stress fiber formation assay in NIH3T3 cells; type: cell-based; conditions: serum-starved 16 hours, 10% serum 10 minutes
Protocol: (§1) NIH3T3 cells, N1E-115 cells and 293T cells were maintained in DMEM containing 10% fetal bovine serum. Lipofectamine 2000 (Invitrogen) was used for transfection. For the stress fiber formation assay, NIH3T3 cells were cultured in serum-free medium for 16 hours after transfection. Stress fiber formation was evoked by incubating the cells with 10% serum for 10 minutes. Hippocampal neurons were prepared from 18-day-old Sprague-Dawley rats, as previously described (Neumann, H. et al., Science. 269:549-552, 1995). Briefly, hippocampi were dissected and the meninges removed. The trimmed tissue was dissociated by trituration. The dissociated cells were plated on dishes pre-coated with poly-L-lysine (Sigma), and cultured in DMEM containing 10% fetal bovine serum for 24 hours. Then, the medium was replaced with DMEM with B27 supplement (Invitrogen), and the cells were transfected with GFP or GFP-ΔNLS-p21. Neuronal morphology was estimated at 24 hours after the transfection.

[11] = test system: N1E-115 cells; assay: Growth and differentiation of N1E-115 cells; type: cell-based; conditions: for proliferation of N1E-115 cells: until 48 hours after transfection
Protocol: Cells were seeded in 6-cm dishes, transfected, and were counted 1 and 2 days after transfection. The relative increases in the number of the cells are shown. The values are means±SEM of 3 independent experiments. *, p<0.01 compared with full-p21 (Student's t-test). There is no significant difference between GFP and GFP-ΔNLS-p21 transfected cells. […] N1E-115 cells were treated with DMSO, or transfected with GFP-full-p21 or GFP-ΔNLS-p21, then were harvested at 1, 2, 3 and 4 days. Arrowheads indicate hyperphosphorylated pRb, and the arrow indicates underphosphorylated pRb. […] Shown are photomicrographs of the cells transfected with each construct. […] N1E-115 cells exposed to Y-27632 (10 μM) for 30 minutes or expressing GFP, GFP-full-p21 or GFP-ΔNLS-p21 were categorized into 3 groups; the cells with long neurites (long neurite), cells with a round form (round), and cells with other forms (others). Data represent means±SEM of 3 independent experiments. *, p<0.05 compared with control. **, p<0.01 compared with control as well as full-p21 (Student's t-test).
as §1

[12] = target: T1, Rho-kinase; assay: Co-immunoprecipitation of p21 constructs and Rho-kinase in 293T cells; type: cell-based; conditions: anti-p21 antibody
Protocol: 293T cells were transfected with myc-Rho-kinase in combination with GFP-full-p21 or GFP-ΔNLS-p21. At 48 hours after transfection, the cells were lysed with 1 ml of lysis buffer (50 mM Tris-HCl (pH 7.5), 150 mM NaCl, 10% glycerol, 0.5% Nonidet-P40 including protease inhibitor cocktail tablets (Roche). The cell lysates were centrifuged at 13,000×g for 20 minutes, and the supernatant was collected. Immunoprecipitations were performed for 2 hours at 4° C. using an anti-p21 mouse monoclonal antibody (Santa Cruz Biotechnology) and 0.75 ml of the supernatant. The immunocomplexes were collected with protein G-Sepharose (Amersham Pharmacia Biotech) slurry (50% v/v), washed 4 times with lysis buffer, and subjected to SDS-PAGE. They were transferred to the polyvinylidene difluoride membranes and probed with the anti-myc rabbit polyclonal antibody (Santa Cruz Biotechnology). Interaction of endogenous proteins in N1E-115 cells was assessed in the same way using anti Rho-kinase antibody.

[13] = test system: hippocampal neurons; assay: Neurite outgrowth and branching of hippocampal neurons; type: cell-based; conditions: rat E18 hippocampal neurons, 24 hours after transfection
Protocol: as §1
Cultures of the hippocampal neurons from rat E18 embryos were used. […] Twenty-four hours after transfection, the cells were fixed and immunolabeled with β-tubulin III. The total neurite length per neuron, the axonal length, defined as the length of the longest neurite per neuron, the number of primary processes originating from the neuronal somata, and the number of branch points per neuron were determined (Neumann, H. et al., J. Neurosci. 22:854-862, 2002).

Chain of catalytic domain of Rho-kinase (GST-CAT) (Q28021 6-553 limits assumed): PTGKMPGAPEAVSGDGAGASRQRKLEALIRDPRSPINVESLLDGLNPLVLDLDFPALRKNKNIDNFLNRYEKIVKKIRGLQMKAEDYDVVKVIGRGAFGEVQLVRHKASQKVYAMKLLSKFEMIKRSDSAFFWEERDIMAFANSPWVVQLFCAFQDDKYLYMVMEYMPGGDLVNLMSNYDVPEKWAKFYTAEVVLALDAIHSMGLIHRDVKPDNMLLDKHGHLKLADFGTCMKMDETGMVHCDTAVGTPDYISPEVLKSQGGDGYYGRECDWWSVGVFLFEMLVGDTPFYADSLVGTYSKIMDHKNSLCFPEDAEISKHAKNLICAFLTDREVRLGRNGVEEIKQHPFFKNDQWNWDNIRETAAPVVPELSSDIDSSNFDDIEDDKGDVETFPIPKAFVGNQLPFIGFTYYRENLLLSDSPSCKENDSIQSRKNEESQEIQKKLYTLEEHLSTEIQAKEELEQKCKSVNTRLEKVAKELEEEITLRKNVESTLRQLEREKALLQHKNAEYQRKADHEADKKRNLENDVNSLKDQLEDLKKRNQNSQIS

Compound: Cn1c2ccccc2c2c3c(c4c5ccccc5n(CCC#N)c4c21)CNC3=O [G06976]
- neurite outgrowth response to MAG-Fc or Nogo peptide with another PKC inhibitor [1]: Same results were obtained

Compound: C[C@@H](N)[C@H]1CC[C@H](C(=O)Nc2ccncc2)CC1 [Y-27632, reference compound]
- interaction of p21 with Rho-kinase [2]: inhibited the interaction of p21 with Rho-kinase in a dose dependent manner
- Rho-kinase activity (compared to the original) [3]: 51.9%
- neurite formation / population with long neurites [4]: induced significant neurite formation

Compound: AKRRRLSSLRA [S6 kinase substrate peptide]
- interaction of p21 with Rho-kinase [2]: inhibited the interaction of p21 with Rho-kinase in a dose dependent manner

Compound: GD1a
- association with recombinant p75 extracellular domain fused to Fc [5]: did not see any interaction

Compound: GT1b
- association with recombinant p75 extracellular domain fused to Fc [5]: binds to p75 in a manner that is SDS-resistant

Compound: NGF: Nerve growth factor [reference compound]
- RhoA activity [6]: rapidly inhibits RhoA activity
- interaction of p75 with Rho GDI as well as RhoA [7]: abolished the interaction

Compound: Rho GDI: Rho GDP dissociation inhibitor; recombinant protein or myc-tagged Rho GDI plasmid over-expression
- effect of over-expression on inhibition of neurite outgrowth by MAG and the Nogo peptide [8]: abolished these inhibitory effects
- direct physical interaction with p75 [9]: bound to p75

Compound: RhoA: bacterially produced RhoA, GDP-bound, GTP-bound or nucleotide-depleted
- direct physical interaction with p75 [9]: no interaction between them in any nucleotide state

Compound: full-length p21: pEGFP-full-p21 (aa 1-164), mammalian expression vector for GFP fused protein
- actin stress fiber formation after the addition of serum [10]: Extensive actin stress fibers were observed
- proliferation of N1E-115 cells [11]: stopped proliferation
- Rho-kinase activity (compared to the original) [3]: no significant effect
- neurite formation / population with long neurites [4]: no increase in the cell population that had long neurites
- co-immunoprecipitation of myc-tagged Rho-kinase [12]: only a faint signal could be detected

Compound: ΔNLS-p21: p21 with loss of nuclear localization signal (aa 1-140), expressed as GFP fused protein
- actin stress fiber formation after the addition of serum [10]: little stress fiber formation
- differentiation inducing activity ([11]; cyclin D3 and pRb Western blot): has no differentiation inducing activity
- proliferation of N1E-115 cells [11]: proliferated until 48 hours after transfection
- number of primary processes [13]: no change in the number of primary processes
- number of branch points per neuron ([13]; control 1.3): 2.6
- axonal length (length of the longest neurite per neuron) ([13]; control 66.3): 162.9 μm
- total neurite length per neuron ([13]; control 135.9): 307.2 μm
- Rho-kinase activity (compared to the original) [3]: 48.1%
- cells that extended long neurites ([4]; 48 hours after transfection): more than 45%
- increase of cells with long neurites compared to the control ([4]; 48 hours after transfection): 3.1 fold
- co-immunoprecipitation of myc-tagged Rho-kinase [12]: efficiently precipitated myc-tagged Rho-kinase

From patent US20070054848A1, “Composition and method for nerve regeneration” (priority 2003, published 2007)
